The record followed here is ChEMBL document CHEMBL1201862, “PubChem BioAssay data set” (2004).

Molecules are shown by their SMILES.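 Dose response: 5 concentrations. Exposure: 48 h. Format: 96-well plates. Endpoint: linear interpolation; highest concentration if not reached. At the GI50, growth is halved.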 Activity calls are given as the source filed them. Cut-off read from the data, not from the text of the source: active = GI50 up to about 1.1 µM and inactive = higher.

Holding throughout (experiment): DTP human tumour cell line panel, 48 h
The test system of test [1] is Hs-578T.
Test [2] has as its system KM-20L2.
The test system of test [3] is NCI-H23.
Test [4] deals with Malme-3M.
The test system of test [5] is SW-620.
Test [6] has as its system SNB-19.
Test [7] relates to SN12C.
For test [8], the system named is HCT-15.
Test [9] concerns PC-3.
Test [10] has as its system MDA-N.
The test system of test [11] is SF-295.
For test [12], the system named is UACC-62.
The test system of test [13] is A549.
Test [14] concerns U-251.
In test [15] the test system is NCI-H522.
Test [16] has as its system TK-10.
Test [17] has as its system OVCAR-4.
In test [18] the test system is UACC-257.
Test [19] concerns OVCAR-3.
For test [20], the system named is EKVX.

In general, GI50 refers to the concentration giving 50% growth inhibition. As to `O=C1C(Cl)=C(Cl)C(=O)N1c1ccc(F)cc1` [FLUOROIMIDE], the GI50 in test [1] is 28.1 µM (inactive); in test [2] it was 22.1 µM (inactive); in [3], 17.5 µM (inactive); in [4] it was 17.2 µM (inactive); in test [5], 16.9 µM (inactive); in [6], > 58.3 µM (inactive). Further, the GI50 in test [7] was 19.1 µM (inactive); in test [8], 16.2 µM; in test [9] it was 16.3 µM (inactive); in test [10], 19.5 µM (inactive); in test [11], > 53.2 µM (inactive); in test [12], 14.7 µM (inactive). In addition, the GI50 was 97.9 µM (inactive) in test [13]; 33.1 µM (inactive) in test [14]; 3.81 µM (inactive) in test [15]; 18.7 µM (inactive) in test [16]; 16.3 µM (inactive) in test [17]; 36.1 µM (inactive) in test [18]. For the same compound, the GI50 in test [19] is 17.5 µM (inactive); in [20], 21.4 µM (inactive).

Turning to `O=C1NC2OCC(O)C(O)C2O1` (stereo not drawn), the GI50 in [2], in [3], in test [4], in [5], in [6] and in [7] was > 100 µM (inactive) throughout. The GI50 in [8] was > 100 µM; in [11] it was > 100 µM (inactive); in test [12], > 100 µM (inactive); in test [13] it was > 100 µM (inactive); in test [14], > 100 µM (inactive); in [15] it was > 100 µM (inactive). Further, the GI50 in test [16], in [17], in [18], in test [19] and in [20] was > 100 µM (inactive) throughout.

As for `O=C(O)CC(NC(=O)CP(=O)(O)O)C(=O)O` (stereo not drawn), the GI50 in test [1] was 3640 µM (inactive); in test [2] it was 158 µM (inactive); in test [3] it was 2800 µM (inactive); in test [4], 2360 µM (inactive); in test [5], 285 µM (inactive); in test [6], 103 µM (inactive). For the same compound, the GI50 in test [7] is 724 µM (inactive); in test [8] it was 146 µM; in [9], 1640 µM (inactive); in [10] it was 221 µM (inactive); in [11], 44.9 µM (inactive); in test [12], 79.6 µM (inactive). The GI50 is 47.4 µM (inactive) in test [13]; 71.9 µM (inactive) in [14]; 1650 µM (inactive) in test [15]; 1420 µM (inactive) in [16]; 2180 µM (inactive) in [17]; 910 µM (inactive) in test [19]. Moreover, in test [20], the GI50 is 2000 µM (inactive).

Turning to `COCN/C(N)=N/C#N`, the GI50 in [2] is > 100 µM (inactive); in test [3], > 100 µM (inactive); in [4], > 100 µM (inactive); in test [5], 15.7 µM (inactive); in test [6], > 100 µM (inactive); in test [7] it was > 100 µM (inactive). The GI50 is 15.7 µM in test [8]; > 100 µM (inactive) in [11]; > 100 µM (inactive) in test [12]; > 100 µM (inactive) in [13]; 27.4 µM (inactive) in [14]; > 100 µM (inactive) in test [15]. For the same compound, the GI50 in [16], in [17], in test [18], in [19] and in test [20] was > 100 µM (inactive) each time.

For the compound `CCSc1nc(N2CCCC2)s[s+]1.[O-][Cl+3]([O-])([O-])[O-]`, the GI50 in test [1] is 40.6 µM (inactive); in test [2], 55.6 µM (inactive); in test [3], 46.8 µM (inactive); in test [4], 53.3 µM (inactive); in [5] it was 34.4 µM (inactive); in [6], > 100 µM (inactive). Also, the GI50 was 46.1 µM (inactive) in test [7]; 27.4 µM in [8]; 31.7 µM (inactive) in [9]; 16.3 µM (inactive) in test [10]; 54.6 µM (inactive) in test [11]; 0.684 µM (active) in [12]. Also, the GI50 in [13] is 18.9 µM (inactive); in test [14], 56.4 µM (inactive); in test [15], 0.346 µM (active); in test [16], 90.8 µM (inactive); in test [17] it was 50.8 µM (inactive); in [18], 36.9 µM (inactive). Moreover, the GI50 is 3.58 µM (inactive) in [19] and 67.3 µM (inactive) in test [20].

Regarding `CCCCc1c2c(nc3c1CCC/C3=C\c1ccccc1)C(=O)C(CN(C)C)CC2` (stereo not drawn), the GI50 in [1] is 17.9 µM (inactive); in [2], 17.8 µM (inactive); in [3], 16.5 µM (inactive); in test [4] it was 22.1 µM (inactive); in [5], 10.4 µM (inactive); in test [6], 18.3 µM (inactive). Moreover, the GI50 in test [7] is 20.1 µM (inactive); in test [8] it was 8.97 µM; in test [9], 14.1 µM (inactive); in test [10], 7.28 µM (inactive); in test [11], 16.7 µM (inactive); in test [12], 20.3 µM (inactive). For the same compound, the GI50 is 19.9 µM (inactive) in test [13]; 16.6 µM (inactive) in test [14]; 13.8 µM (inactive) in test [15]; 15.7 µM (inactive) in test [16]; 14.3 µM (inactive) in test [17]; 17 µM (inactive) in test [18]. The GI50 in [19] is 19.5 µM (inactive); in test [20], 18.5 µM (inactive).
